Here are results for one compound from PMC7070407, “Moringin, A Stable Isothiocyanate from Moringa oleifera, Activates the Somatosensory and Pain Receptor TRPA1 Channel In Vitro” (Molecules, 2020).

Where only a bound is given, the exact number is not on record here.

Assay [1] concerns the target T1, human TRPV1 (Homo sapiens, UniProt Q8NER1).
T1 construct: expressed in transfected cells; host or cells: HEK-293
Kind of assay: Elevation of intracellular Ca2+ (Fluo-4) in HEK-293 cells stably transfected with human TRPV1. Format: cell-based. The settings on record: TRPV1. The method, then:
Assay of rat TRPA1, TRPV2, TRPV3, TRPV4, TRPM8 or human TRPV1 mediated elevation of intracellular Ca^2+ in transfected HEK-293 cells are been performed as described. Briefly, human embryonic kidney (HEK-293) cells, stably transfected with rat TRPA1, TRPV2, TRPV3, TRPV4, TRPM8 or human TRPV1 (selected by Geneticin 600 μg mL^−1) or not transfected, were cultured in EMEM + 2 mM Glutamine + 1% Non-Essential Amino Acids (NEAA) + 10% FBS and maintained at 37 °C with 5% CO2. Stable transfections were checked by quantitative real-time polymerase chain reaction (PCR), quantitative real-time PCR was performed by an iCycler-iQ (Bio-Rad, Hercules, CA, USA) in a 20 μL reaction mixture containing the following: 10 μL iQ SYBR Green Supermix 2X (Bio-Rad), 20 ng of cDNA (calculated on the basis of the retro-transcribed RNA), and 330 nM for each primer. Optimized primers for SYBR Green analysis (and relative TaOpt) and optimum annealing temperatures were designed by Allele-Id software version 7.0 (Biosoft International, Palo Alto, CA, USA) and were synthesized (HPLC-purification grade) by MWG-Biotech AG (Ebersberg, Germany). Assays were performed in quadruplicate (maximal ΔCt of replicate samples, <0.5). Relative expression analysis, correct for PCR efficiency and normalized with respect to reference genes β-actin and glyceraldehyde 3-phosphate dehydrogenase, was performed by GENEX software (Bio-Rad). […] The day of the experiment the cells were loaded with Fluo-4 AM (4 μM in DMSO containing 0.02% Pluronic F-127) for 1 h in the dark at room temperature, rinsed and resuspended in Tyrode’s solution (145 mM NaCl, 2.5 mM KCl, 1.5 mM CaCl2, 1.2 mM MgCl2, 10 mM D-glucose, and 10 mM HEPES, pH 7.4), finally transferred to a quartz cuvette of a spectrofluorimeter (Perkin-Elmer LS50B; λEX = 488 nm, λEM = 516 nm) equipped with PTP-1 Fluorescence Peltier System (PerkinElmer Life and Analytical Sciences, Waltham, MA, USA) under continuous stirring. Cell fluorescence before and after the addition of various concentrations of test compounds and extracts were measured normalizing the effects against the response to ionomycin (4 µM). The values of the effect on [Ca^2+]i in HEK-293 cells not transfected are used as baseline and subtracted from the values obtained from transfected cells. […] The potency of the compounds (EC50 values) are determined as the concentration required to produce half-maximal increases in [Ca^2+]i. In TRPV3 assay TRPV3-expressing HEK293 cells were first sensitized with the structurally unrelated agonist 2-aminoethoxydiphenyl borate (100 μM). Antagonist/desensitizing behaviour is evaluated against the agonist of the TRP analyzed by adding the compounds directly in the quartz cuvette 5 min before stimulation of cells with the agonist. […]

In assay [2] the test system is not transfected HEK-293 cells. The assay is described as follows: Effect on [Ca2+]i in not transfected HEK-293 cells (baseline). Format: cell-based, human. The method, then: Compound and extracts’ effects on intracellular Ca^2+ concentration ([Ca^2+]i) were determined using the selective intracellular fluorescent probe for Ca^2+ Fluo-4. Assay of rat TRPA1, TRPV2, TRPV3, TRPV4, TRPM8 or human TRPV1 mediated elevation of intracellular Ca^2+ in transfected HEK-293 cells are been performed as described. Briefly, human embryonic kidney (HEK-293) cells, stably transfected with rat TRPA1, TRPV2, TRPV3, TRPV4, TRPM8 or human TRPV1 (selected by Geneticin 600 μg mL^−1) or not transfected, were cultured in EMEM + 2 mM Glutamine + 1% Non-Essential Amino Acids (NEAA) + 10% FBS and maintained at 37 °C with 5% CO2. Stable transfections were checked by quantitative real-time polymerase chain reaction (PCR), quantitative real-time PCR was performed by an iCycler-iQ (Bio-Rad, Hercules, CA, USA) in a 20 μL reaction mixture containing the following: 10 μL iQ SYBR Green Supermix 2X (Bio-Rad), 20 ng of cDNA (calculated on the basis of the retro-transcribed RNA), and 330 nM for each primer. […] Cell fluorescence before and after the addition of various concentrations of test compounds and extracts were measured normalizing the effects against the response to ionomycin (4 µM). […] The potency of the compounds (EC50 values) are determined as the concentration required to produce half-maximal increases in [Ca^2+]i. […]

In assay [3] the target is T2, rat TRPA1 (Rattus norvegicus, UniProt Q6RI86).
T2 construct: expressed in transfected cells; host or cells: HEK-293
T2 sequence (Q6RI86 whole entry): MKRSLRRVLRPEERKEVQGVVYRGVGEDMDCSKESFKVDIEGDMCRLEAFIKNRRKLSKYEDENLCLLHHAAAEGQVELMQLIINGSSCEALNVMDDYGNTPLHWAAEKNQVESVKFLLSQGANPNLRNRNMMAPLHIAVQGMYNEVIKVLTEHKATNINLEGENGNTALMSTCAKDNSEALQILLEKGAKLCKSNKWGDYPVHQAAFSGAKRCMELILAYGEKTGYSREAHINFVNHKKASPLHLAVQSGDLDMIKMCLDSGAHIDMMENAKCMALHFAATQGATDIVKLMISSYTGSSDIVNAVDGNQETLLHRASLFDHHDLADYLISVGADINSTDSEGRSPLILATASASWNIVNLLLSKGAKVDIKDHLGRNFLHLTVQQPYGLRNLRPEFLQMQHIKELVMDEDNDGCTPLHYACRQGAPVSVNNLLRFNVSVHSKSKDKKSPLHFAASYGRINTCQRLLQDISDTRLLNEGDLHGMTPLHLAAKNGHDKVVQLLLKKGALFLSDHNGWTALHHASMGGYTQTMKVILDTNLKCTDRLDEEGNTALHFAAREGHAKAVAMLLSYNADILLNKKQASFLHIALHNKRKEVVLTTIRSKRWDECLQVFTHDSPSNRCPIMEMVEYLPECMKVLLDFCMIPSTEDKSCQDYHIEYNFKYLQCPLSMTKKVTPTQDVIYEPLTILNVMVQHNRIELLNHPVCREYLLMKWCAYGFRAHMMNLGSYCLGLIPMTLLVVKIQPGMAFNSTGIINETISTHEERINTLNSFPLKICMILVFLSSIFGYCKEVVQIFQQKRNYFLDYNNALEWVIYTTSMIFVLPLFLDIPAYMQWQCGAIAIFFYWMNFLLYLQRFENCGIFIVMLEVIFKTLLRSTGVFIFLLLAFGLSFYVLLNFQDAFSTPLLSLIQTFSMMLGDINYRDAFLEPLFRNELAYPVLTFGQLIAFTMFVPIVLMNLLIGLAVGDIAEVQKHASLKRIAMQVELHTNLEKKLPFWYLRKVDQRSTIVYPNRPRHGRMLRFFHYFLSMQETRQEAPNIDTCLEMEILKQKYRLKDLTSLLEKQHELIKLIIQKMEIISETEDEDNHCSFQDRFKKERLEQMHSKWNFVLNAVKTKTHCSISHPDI
The assay is described as follows: Elevation of intracellular Ca2+ (Fluo-4) in HEK-293 cells stably transfected with rat TRPA1; agonist and antagonist/desensitizing behaviour. Format: cell-based. As for the experimental part:
Assay of rat TRPA1, TRPV2, TRPV3, TRPV4, TRPM8 or human TRPV1 mediated elevation of intracellular Ca^2+ in transfected HEK-293 cells are been performed as described. Briefly, human embryonic kidney (HEK-293) cells, stably transfected with rat TRPA1, TRPV2, TRPV3, TRPV4, TRPM8 or human TRPV1 (selected by Geneticin 600 μg mL^−1) or not transfected, were cultured in EMEM + 2 mM Glutamine + 1% Non-Essential Amino Acids (NEAA) + 10% FBS and maintained at 37 °C with 5% CO2. Stable transfections were checked by quantitative real-time polymerase chain reaction (PCR), quantitative real-time PCR was performed by an iCycler-iQ (Bio-Rad, Hercules, CA, USA) in a 20 μL reaction mixture containing the following: 10 μL iQ SYBR Green Supermix 2X (Bio-Rad), 20 ng of cDNA (calculated on the basis of the retro-transcribed RNA), and 330 nM for each primer. Optimized primers for SYBR Green analysis (and relative TaOpt) and optimum annealing temperatures were designed by Allele-Id software version 7.0 (Biosoft International, Palo Alto, CA, USA) and were synthesized (HPLC-purification grade) by MWG-Biotech AG (Ebersberg, Germany). Assays were performed in quadruplicate (maximal ΔCt of replicate samples, <0.5). Relative expression analysis, correct for PCR efficiency and normalized with respect to reference genes β-actin and glyceraldehyde 3-phosphate dehydrogenase, was performed by GENEX software (Bio-Rad). […] The day of the experiment the cells were loaded with Fluo-4 AM (4 μM in DMSO containing 0.02% Pluronic F-127) for 1 h in the dark at room temperature, rinsed and resuspended in Tyrode’s solution (145 mM NaCl, 2.5 mM KCl, 1.5 mM CaCl2, 1.2 mM MgCl2, 10 mM D-glucose, and 10 mM HEPES, pH 7.4), finally transferred to a quartz cuvette of a spectrofluorimeter (Perkin-Elmer LS50B; λEX = 488 nm, λEM = 516 nm) equipped with PTP-1 Fluorescence Peltier System (PerkinElmer Life and Analytical Sciences, Waltham, MA, USA) under continuous stirring. Cell fluorescence before and after the addition of various concentrations of test compounds and extracts were measured normalizing the effects against the response to ionomycin (4 µM). The values of the effect on [Ca^2+]i in HEK-293 cells not transfected are used as baseline and subtracted from the values obtained from transfected cells. […] The potency of the compounds (EC50 values) are determined as the concentration required to produce half-maximal increases in [Ca^2+]i. In TRPV3 assay TRPV3-expressing HEK293 cells were first sensitized with the structurally unrelated agonist 2-aminoethoxydiphenyl borate (100 μM). Antagonist/desensitizing behaviour is evaluated against the agonist of the TRP analyzed by adding the compounds directly in the quartz cuvette 5 min before stimulation of cells with the agonist. […] In order to assess functional antagonism of TRPA1 channels, AP18, 4-(4-chlorophenyl)-3-methyl-3-buten-2-one oxime […] Dose-response curve fitting (sigmoidal dose-response variable slope) and parameter estimation were performed with Graph-Pad Prism8® (GraphPad Software Inc., San Diego, CA, USA). All determinations were performed at least in triplicate.

For assay [4], the target named is T3, rat TRPV3 (Rattus norvegicus, UniProt Q4QYD9).
T3 construct: expressed in transfected cells; host or cells: HEK-293
T3 sequence (Q4QYD9 1-791): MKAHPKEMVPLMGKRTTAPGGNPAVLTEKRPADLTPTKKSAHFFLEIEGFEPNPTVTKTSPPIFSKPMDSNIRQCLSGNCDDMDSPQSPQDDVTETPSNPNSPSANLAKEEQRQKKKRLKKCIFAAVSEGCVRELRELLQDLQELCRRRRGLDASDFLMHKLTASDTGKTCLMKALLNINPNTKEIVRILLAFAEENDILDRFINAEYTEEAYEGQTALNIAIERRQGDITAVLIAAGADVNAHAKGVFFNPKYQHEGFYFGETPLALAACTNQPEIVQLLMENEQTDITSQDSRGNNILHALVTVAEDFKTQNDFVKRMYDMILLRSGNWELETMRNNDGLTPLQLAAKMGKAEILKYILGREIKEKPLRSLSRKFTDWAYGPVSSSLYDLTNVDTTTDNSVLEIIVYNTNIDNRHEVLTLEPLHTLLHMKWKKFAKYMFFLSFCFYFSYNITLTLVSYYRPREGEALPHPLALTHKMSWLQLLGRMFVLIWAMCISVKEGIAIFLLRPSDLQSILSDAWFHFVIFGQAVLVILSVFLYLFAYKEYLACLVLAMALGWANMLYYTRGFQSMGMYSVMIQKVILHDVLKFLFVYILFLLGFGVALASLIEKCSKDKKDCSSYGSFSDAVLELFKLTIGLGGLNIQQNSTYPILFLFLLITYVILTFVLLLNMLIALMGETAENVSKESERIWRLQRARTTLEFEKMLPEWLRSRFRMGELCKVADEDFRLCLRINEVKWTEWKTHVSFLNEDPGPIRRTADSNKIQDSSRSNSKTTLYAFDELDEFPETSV
Kind of assay: Elevation of intracellular Ca2+ (Fluo-4) in HEK-293 cells stably transfected with rat TRPV3. The class given is cell-based. The settings on record: TRPV3, against reference agonist thymol 100 μM. As for the experimental part:
Assay of rat TRPA1, TRPV2, TRPV3, TRPV4, TRPM8 or human TRPV1 mediated elevation of intracellular Ca^2+ in transfected HEK-293 cells are been performed as described. Briefly, human embryonic kidney (HEK-293) cells, stably transfected with rat TRPA1, TRPV2, TRPV3, TRPV4, TRPM8 or human TRPV1 (selected by Geneticin 600 μg mL^−1) or not transfected, were cultured in EMEM + 2 mM Glutamine + 1% Non-Essential Amino Acids (NEAA) + 10% FBS and maintained at 37 °C with 5% CO2. Stable transfections were checked by quantitative real-time polymerase chain reaction (PCR), quantitative real-time PCR was performed by an iCycler-iQ (Bio-Rad, Hercules, CA, USA) in a 20 μL reaction mixture containing the following: 10 μL iQ SYBR Green Supermix 2X (Bio-Rad), 20 ng of cDNA (calculated on the basis of the retro-transcribed RNA), and 330 nM for each primer. […] The day of the experiment the cells were loaded with Fluo-4 AM (4 μM in DMSO containing 0.02% Pluronic F-127) for 1 h in the dark at room temperature, rinsed and resuspended in Tyrode’s solution (145 mM NaCl, 2.5 mM KCl, 1.5 mM CaCl2, 1.2 mM MgCl2, 10 mM D-glucose, and 10 mM HEPES, pH 7.4), finally transferred to a quartz cuvette of a spectrofluorimeter (Perkin-Elmer LS50B; λEX = 488 nm, λEM = 516 nm) equipped with PTP-1 Fluorescence Peltier System (PerkinElmer Life and Analytical Sciences, Waltham, MA, USA) under continuous stirring. […]

T1 sequence (Q8NER1 whole entry): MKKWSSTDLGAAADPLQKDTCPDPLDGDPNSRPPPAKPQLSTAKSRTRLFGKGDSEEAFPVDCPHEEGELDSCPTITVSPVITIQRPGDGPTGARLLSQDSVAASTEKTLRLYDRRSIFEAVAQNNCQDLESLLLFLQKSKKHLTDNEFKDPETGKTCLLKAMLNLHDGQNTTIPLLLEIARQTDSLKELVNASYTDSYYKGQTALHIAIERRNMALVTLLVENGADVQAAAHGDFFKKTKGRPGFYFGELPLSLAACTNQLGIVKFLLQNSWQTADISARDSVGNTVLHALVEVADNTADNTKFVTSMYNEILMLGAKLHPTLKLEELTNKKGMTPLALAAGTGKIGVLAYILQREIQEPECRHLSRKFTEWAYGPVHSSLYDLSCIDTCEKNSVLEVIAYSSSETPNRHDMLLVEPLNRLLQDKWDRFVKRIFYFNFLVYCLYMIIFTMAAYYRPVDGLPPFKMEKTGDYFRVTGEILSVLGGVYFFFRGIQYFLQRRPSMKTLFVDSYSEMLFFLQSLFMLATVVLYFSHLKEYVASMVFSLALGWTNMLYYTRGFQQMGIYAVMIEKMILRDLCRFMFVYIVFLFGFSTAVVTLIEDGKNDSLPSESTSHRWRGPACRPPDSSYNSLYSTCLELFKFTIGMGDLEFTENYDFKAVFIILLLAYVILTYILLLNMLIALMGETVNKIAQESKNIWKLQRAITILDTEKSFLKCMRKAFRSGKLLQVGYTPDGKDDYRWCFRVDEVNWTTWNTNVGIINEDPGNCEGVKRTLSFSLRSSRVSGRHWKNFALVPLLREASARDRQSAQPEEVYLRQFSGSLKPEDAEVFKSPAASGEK

With `C[C@@H]1O[C@@H](Oc2ccc(CN=C=S)cc2)[C@H](O)[C@H](O)[C@H]1O` [Moringin, 4-[(α-L-rhamnosyloxy)benzyl]isothiocyanate], the “Potency EC50” value in assay [1] is given as “weak”. The “Increase of [Ca2+]i in not transfected HEK-293 cells, % of the response in rTRPA1 HEK-293 cells” value in assay [2] is under 10%. The EC50 in assay [3] was 3.14 ± 0.16 µM. For the same compound, the IC50 was 3.6 ± 0.05 µM in assay [3] and over 100 µM in assay [4]. Also, the “Effect of AITC 100 μM administered after pre-incubation with moringin” value in assay [3] (TRPA1-HEK293 cells, pre-incubation with moringin 50 μM) is “completely inhibited”. The “Efficacy (% AITC 100 µM)” value in assay [3] (rTRPA1-HEK-293, percentage of the effect on [Ca2+]i of AITC 100 µM) is given as 102.6 ± 1.1%.
